Laboratory results reported in patent US8895313B2, “Ligands for aggregated tau molecules” (Wista Laboratories Ltd., priority 2008, dated 2014).
Values belong to the compound of their own block, whether it stands above or below them.

How the values were obtained:
[1] = biological target: T1, aggregated tau in 3T6 cells expressing htau40 (IPTG-inducible) and truncated tau (Homo sapiens, UniProt P10636); experiment: Tissue culture cell assay: uptake and labelling of aggregated tau; assay type: cell-based, mouse; conditions: for binding to aggregated tau within cells, fluorescence microscopy: induced cells
T1 construct: express both full-length human tau protein (htau40); truncated tau (295-390, dGA); expressed in transfected cells; host or cells: murine 3T6 fibroblasts; htau40 in pOPRSVI (IPTG-inducible), dGA in pcDNA3.1 (constitutive)
Description: The aggregated tau was prepared in cell lines as described in WO02/055720. In essence, fibroblast cells (3T6) express full-length tau (“T40”) under control of an inducible promotor, and low constitutive levels of the PHF-core tau fragment (12 kD fragment). Then T40 expression is induced, it undergoes aggregation-dependent truncation within the cell, N-terminally at ˜αα295 and C-terminally at ˜αα390, thereby producing higher levels of the 12 kD PHF-core domain fragment.
The tissue culture assay uses 3T6 mouse cells engineered to express both full-length human tau protein (htau40) under the control of an inducible promoter (pOPRSVI), and to express low levels of truncated tau (295-390, dGA) under the control of a constitutive promoter (pcDNA3.1). Expression of large quantities of htau40 is induced by the addition of isopropyl β-D-1-thiogalactopyranoside (IPTG; 10-50 μM), which in turn leads to the production of additional truncated tau by a process in which aggregation and processing of the full-length tau occurs in the presence of dGA tau which acts as template. The aggregation of tau in this assay is depicted in FIG. 1.
Murine 3T6 fibroblast cells were grown to ˜80% confluency in a 10-cm dish, before splitting into 2×24 well plates, and allowed to grow for a further 24 hrs when IPTG was added. After overnight incubation, the medium was removed and the cells were washed with PBS.
A similar experiment was performed with cells seeded on to cover slips in a 24-well plate. After 24 hrs, the cells were incubated with ligand for 20 hrs in the presence or absence of IPTG (100 μM) i.e. induced or uninduced.

[2] = biological target: T2, aggregated tau in brain sections of line 66 mice (full-length human tau, P301S/G335D) (Homo sapiens, UniProt P10636, G652D/P618S); experiment: Ligand staining of paraffin-embedded brain sections; set-up: species or system mouse
T2 construct: transgenic mice expressing full-length human tau; from tissue; host or cells: fixed brain sections of transgenic line 66 mice (paraffin-embedded or frozen)
T2 sequence (P10636 1-441 isoform P10636-8 P301S/G335D): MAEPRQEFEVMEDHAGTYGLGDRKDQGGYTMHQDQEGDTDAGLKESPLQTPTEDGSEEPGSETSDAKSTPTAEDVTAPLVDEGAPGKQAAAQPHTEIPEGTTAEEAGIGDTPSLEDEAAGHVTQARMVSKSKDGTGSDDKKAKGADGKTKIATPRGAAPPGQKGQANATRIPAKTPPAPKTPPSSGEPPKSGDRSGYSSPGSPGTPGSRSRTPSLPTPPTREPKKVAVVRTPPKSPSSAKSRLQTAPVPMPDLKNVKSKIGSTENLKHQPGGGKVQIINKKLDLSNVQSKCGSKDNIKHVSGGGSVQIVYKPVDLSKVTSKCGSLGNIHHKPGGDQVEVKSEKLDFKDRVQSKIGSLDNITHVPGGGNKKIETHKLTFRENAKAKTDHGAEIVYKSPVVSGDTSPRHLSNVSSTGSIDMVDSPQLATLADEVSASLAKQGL
Excerpt: The binding of ligands to aggregated tau in tissue sections or cells containing such aggregates can also be used to test whether such compounds can (i) enter cells, and (ii) bind to aggregated tau. In addition, it is a suitable means to test fluorescent ligands that cannot be tested in the fluorescent competition binding assay.
Brain tissue sections were used from transgenic mice expressing full-length human tau, that contained a double mutation P301S/G335D (line 66 mouse). Aggregated tau pathology accumulates in neurons in these animals. Fixed tissue was used either after embedding in paraffin or after freezing in the presence of cryoprotectant.
Sections from the brains of mice expressing full-length tau, that contain a double mutation P301S/G335D, associated with frontotemporal […] were cut 5 μm thick. Sections were dewaxed and rehydrated into water. Inherent fluorescence was quenched with sodium permanganate followed by sodium borohydride. Primulin or SK2033-30 was added in 50% ethanol. In a second experiment, SK2033-30 was added in 50% ethanol containing 10% DMSO. Sections were compared with those stained by standard immunohistochemistry using mAb 7/51, an antibody recognising truncated tau repeat domain (Novak et al. (1993); Wischik et al. (1996)).

[3] = Biodistribution assay of 18F-labelled ligand; assay type: in vivo, mouse; conditions: mice
Description: Biodistribution and excretion studies for ligands were performed in male NMRI mice (body weight app. 30 g; 3 animals per time point). The animals were kept under normal laboratory conditions at a temperature of 22±2° C. and a dark/light rhythm of 12 hours. Food and water were provided ad libitium. During an acclimatisation period of at least 3 days before the beginning of the study, animals were clinically examined to ascertain the absence of abnormal clinical signs. At 2, 5, 30, 60 and 120 min post intravenous injection via the tail vein of ca. 150 kBq in 100 μl of the test compound, urine and faeces were quantitatively collected. At the same time points, animals were anaesthetised with isoflurane, sacrificed by decapitation and the following organs and tissues were removed for the determination of radioactivity using a gamma-counter: spleen, liver, kidney, lung, bone, heart, brain, fat, thyroid, muscle, skin, blood, tail, stomach (without content), testicle, intestine (with content), pancreas, adrenals, skull, and the remaining body. For the analysis, the decay corrected percentage of the injected dose per tissue weight (% ID/g±standard deviation) was calculated.

- binding to aggregated tau within cells, fluorescence microscopy [1]: selective binding
SMILES: Oc1ccc(/N=N/c2ccc(-c3nc4ccc(O)cc4s3)cc2)c(C(F)(F)F)c1 [LS-T213, 4-{(E)-[4-(6-Hydroxy-1,3-benzothiazol-2-yl)phenyl]diazenyl}-3-(trifluoromethyl)phenol]

- uptake and labelling of aggregated tau in induced cells ([1]; IPTG-induced cells): demonstrated
- binding to aggregated tau within cells, fluorescence microscopy [1]: selective binding
SMILES: Cc1ccc2nc(-c3ccc(/C=C/c4ccc(N(C)C)cc4)cc3)sc2c1 [SK2033-30, 2-{4-[2-(4-Dimethylaminophenyl)-vinyl]-phenyl}-6-methylbenzothiazole]
- staining pattern in paraffin-embedded line 66 mouse brain section ([2]; ligand added in 50% ethanol containing 10% DMSO): showed a staining pattern similar to that observed with primulin or antibody
- uptake/staining in paraffin-embedded line 66 mouse brain section ([2]; ligand added in 50% ethanol, compared with primulin or antibody immunostaining): little evidence for its uptake into cells

- % ID/g ([3]; Adrenals, 2 min post i.v.): 10.84 % ID/g
- % ID/g ([3]; Adrenals, 5 min post i.v.): 9.59 % ID/g
- % ID/g ([3]; Adrenals, 30 min post i.v.): 5.62 % ID/g
- % ID/g ([3]; Adrenals, 60 min post i.v.): 2.83 % ID/g
- % ID/g ([3]; Adrenals, 120 min post i.v.): 1.04 % ID/g
- % ID/g ([3]; Blood, 2 min post i.v.): 1.69 % ID/g
- % ID/g ([3]; Blood, 5 min post i.v.): 1.12 % ID/g
- % ID/g ([3]; Blood, 30 min post i.v.): 0.74 % ID/g
- % ID/g ([3]; Blood, 60 min post i.v.): 0.39 % ID/g
- % ID/g ([3]; Blood, 120 min post i.v.): 0.16 % ID/g
- % ID/g ([3]; Bone, 2 min post i.v.): 1.54 % ID/g
- % ID/g ([3]; Bone, 5 min post i.v.): 1.50 % ID/g
- % ID/g ([3]; Bone, 30 min post i.v.): 1.20 % ID/g
- % ID/g ([3]; Bone, 60 min post i.v.): 1.96 % ID/g
- % ID/g ([3]; Bone, 120 min post i.v.): 1.65 % ID/g
- % ID/g ([3]; Brain, 2 min post i.v.): 3.99 % ID/g
- % ID/g ([3]; Brain, 5 min post i.v.): 3.54 % ID/g
- % ID/g ([3]; Brain, 30 min post i.v.): 3.19 % ID/g
- % ID/g ([3]; Brain, 60 min post i.v.): 1.43 % ID/g
- % ID/g ([3]; Brain, 120 min post i.v.): 0.60 % ID/g
- % ID/g ([3]; Fat, 2 min post i.v.): 1.25 % ID/g
- % ID/g ([3]; Fat, 5 min post i.v.): 1.57 % ID/g
- % ID/g ([3]; Fat, 30 min post i.v.): 7.21 % ID/g
- % ID/g ([3]; Fat, 60 min post i.v.): 4.51 % ID/g
- % ID/g ([3]; Fat, 120 min post i.v.): 1.76 % ID/g
- % ID/g ([3]; Heart, 2 min post i.v.): 6.68 % ID/g
- % ID/g ([3]; Heart, 5 min post i.v.): 3.72 % ID/g
- % ID/g ([3]; Heart, 30 min post i.v.): 1.62 % ID/g
- % ID/g ([3]; Heart, 60 min post i.v.): 0.81 % ID/g
- % ID/g ([3]; Heart, 120 min post i.v.): 0.39 % ID/g
- % ID/g ([3]; Intestine, 2 min post i.v.): 1.99 % ID/g
- % ID/g ([3]; Intestine, 5 min post i.v.): 2.45 % ID/g
- % ID/g ([3]; Intestine, 30 min post i.v.): 9.36 % ID/g
- % ID/g ([3]; Intestine, 60 min post i.v.): 17.43 % ID/g
- % ID/g ([3]; Intestine, 120 min post i.v.): 20.08 % ID/g
- % ID/g ([3]; Kidney, 2 min post i.v.): 9.60 % ID/g
- % ID/g ([3]; Kidney, 5 min post i.v.): 7.10 % ID/g
- % ID/g ([3]; Kidney, 30 min post i.v.): 6.38 % ID/g
- % ID/g ([3]; Kidney, 60 min post i.v.): 3.78 % ID/g
- % ID/g ([3]; Kidney, 120 min post i.v.): 1.49 % ID/g
- % ID/g ([3]; Liver, 2 min post i.v.): 11.52 % ID/g
- % ID/g ([3]; Liver, 5 min post i.v.): 13.30 % ID/g
- % ID/g ([3]; Liver, 30 min post i.v.): 7.03 % ID/g
- % ID/g ([3]; Liver, 60 min post i.v.): 4.26 % ID/g
- % ID/g ([3]; Liver, 120 min post i.v.): 2.41 % ID/g
- % ID/g ([3]; Lung, 2 min post i.v.): 6.91 % ID/g
- % ID/g ([3]; Lung, 5 min post i.v.): 4.55 % ID/g
- % ID/g ([3]; Lung, 30 min post i.v.): 1.83 % ID/g
- % ID/g ([3]; Lung, 60 min post i.v.): 0.97 % ID/g
- % ID/g ([3]; Lung, 120 min post i.v.): 0.40 % ID/g
- % ID/g ([3]; Muscle, 2 min post i.v.): 1.98 % ID/g
- % ID/g ([3]; Muscle, 5 min post i.v.): 1.80 % ID/g
- % ID/g ([3]; Muscle, 30 min post i.v.): 1.11 % ID/g
- % ID/g ([3]; Muscle, 60 min post i.v.): 0.63 % ID/g
- % ID/g ([3]; Muscle, 120 min post i.v.): 0.20 % ID/g
- % ID/g ([3]; Pancreas, 2 min post i.v.): 4.34 % ID/g
- % ID/g ([3]; Pancreas, 5 min post i.v.): 3.17 % ID/g
- % ID/g ([3]; Pancreas, 30 min post i.v.): 1.74 % ID/g
- % ID/g ([3]; Pancreas, 60 min post i.v.): 1.11 % ID/g
- % ID/g ([3]; Pancreas, 120 min post i.v.): 0.33 % ID/g
- % ID/g ([3]; Skin, 2 min post i.v.): 1.01 % ID/g
- % ID/g ([3]; Skin, 5 min post i.v.): 1.28 % ID/g
- % ID/g ([3]; Skin, 30 min post i.v.): 1.87 % ID/g
- % ID/g ([3]; Skin, 60 min post i.v.): 1.11 % ID/g
- % ID/g ([3]; Skin, 120 min post i.v.): 0.45 % ID/g
- % ID/g ([3]; Skull, 2 min post i.v.): 1.93 % ID/g
- % ID/g ([3]; Skull, 5 min post i.v.): 1.28 % ID/g
- % ID/g ([3]; Skull, 30 min post i.v.): 0.95 % ID/g
- % ID/g ([3]; Skull, 60 min post i.v.): 1.44 % ID/g
- % ID/g ([3]; Skull, 120 min post i.v.): 1.04 % ID/g
- % ID/g ([3]; Spleen, 2 min post i.v.): 2.95 % ID/g
- % ID/g ([3]; Spleen, 5 min post i.v.): 2.44 % ID/g
- % ID/g ([3]; Spleen, 30 min post i.v.): 1.19 % ID/g
- % ID/g ([3]; Spleen, 60 min post i.v.): 0.60 % ID/g
- % ID/g ([3]; Spleen, 120 min post i.v.): 0.30 % ID/g
- % ID/g ([3]; Stomach, 2 min post i.v.): 3.67 % ID/g
- % ID/g ([3]; Stomach, 5 min post i.v.): 2.28 % ID/g
- % ID/g ([3]; Stomach, 30 min post i.v.): 2.48 % ID/g
- % ID/g ([3]; Stomach, 60 min post i.v.): 2.17 % ID/g
- % ID/g ([3]; Stomach, 120 min post i.v.): 0.98 % ID/g
- % ID/g ([3]; Tail, 2 min post i.v.): 15.89 % ID/g
- % ID/g ([3]; Tail, 5 min post i.v.): 7.40 % ID/g
- % ID/g ([3]; Tail, 30 min post i.v.): 3.74 % ID/g
- % ID/g ([3]; Tail, 60 min post i.v.): 7.70 % ID/g
- % ID/g ([3]; Tail, 120 min post i.v.): 4.93 % ID/g
- % ID/g ([3]; Testes, 2 min post i.v.): 0.97 % ID/g
- % ID/g ([3]; Testes, 5 min post i.v.): 1.10 % ID/g
- % ID/g ([3]; Testes, 30 min post i.v.): 1.68 % ID/g
- % ID/g ([3]; Testes, 60 min post i.v.): 1.18 % ID/g
- % ID/g ([3]; Testes, 120 min post i.v.): 0.61 % ID/g
- % ID/g ([3]; Thyroid, 2 min post i.v.): 3.97 % ID/g
- % ID/g ([3]; Thyroid, 5 min post i.v.): 2.59 % ID/g
- % ID/g ([3]; Thyroid, 30 min post i.v.): 1.06 % ID/g
- % ID/g ([3]; Thyroid, 60 min post i.v.): 0.59 % ID/g
- % ID/g ([3]; Thyroid, 120 min post i.v.): 0.37 % ID/g
- brain washout ([3]; i.v., 60 min vs 2 min): 64%
- brain uptake ([3]; i.v., after 2 min): 3.99 % injected dose/g tissue
- brain level ([3]; i.v., after 60 min): 1.43 % injected dose/g tissue
SMILES: COc1ccc2nc(-c3ccc(NC(=O)c4ccc([18F])nc4)cc3)sc2c1 [SKT04-137, 6-[^18F]Fluoro-N-[4-(6-methoxy-benzothiazol-2-yl)-phenyl]-nicotinamide]
